The text below walks through data of patent US20220290095A1, “Bifidobacterium breve CCFM1025, Food Fermented Thereby and Application Thereof” (Jiangnan University, priority 2018, published 2022).

The subject of assay [1] is 5-HT in the serum. Briefly: 5-HT in serum of depressed mice (ELISA). In kind it is in vivo, C57BL/6J mice. The settings on record: concluded from serum 5-HT, FIG. 4. As for the experimental part:
(§1) 32 6-week-old male C57BL/6J mice were selected. After one week of adaptation to the environment, the mice were randomly divided into four groups according to body weight: a control group, a model group, a fluoxetine intervention group, and a CCFM1025 intervention group, each containing 8 mice.
(§2) Chronic unpredictable stress depression mouse model: 1-2 kinds of stimuli were randomly performed every day, and the performance time of stimuli every day was determined randomly to avoid the circadian rhythm. Each method was used for not more than three times, and the stimuli were performed for five weeks. The stimuli include: (1) fasting for 24 h; (2) water deprivation+empty bottle stimulus for 24 h; (3) tail pinching for 3 min; (4) wet padding for 24 h; (5) immobilization for 1-2 h; (6) […] for 24 h; (7) continuous lighting for 24 h; (8) no padding for 24 h; (9) forced swim for 15 min; and (10) separation for 24 h.
Lactic acid bacteria gavage: the activated second generation of Bifidobacterium CCFM1025 was taken and cultured at 37° C. for 24 h, and the bacteria were collected after centrifugation at 4° C. and 8000 r/min for 3 min. […]
The serum collected in Example 3 was taken and the content of 5-HT in the serum was measured using an ELISA kit. […]
In general terms: ELISA stands for enzyme-linked immunosorbent assay.

Assay [2] has as its system depressed mice (chronic unpredictable stress depression mouse model). Briefly: Depression-like behaviors of depressed mice (behavioral tests overall). Format: in vivo, C57BL/6J mice. As to the method:
as §1, §2
Lactic acid bacteria gavage: the activated second generation of Bifidobacterium CCFM1025 was taken and cultured at 37° C. for 24 h, and the bacteria were collected after centrifugation at 4° C. and 8000 r/min for 3 min. The supernatant was discarded and the bacteria were resuspended with 5% sterilized skim milk to make the concentration of lactic acid bacteria reach 5×10^9 CFU/mL. The gavage volume is 0.2 mL/mouse/day. […]

Each structure is given as a SMILES string.

On to `CNCCC(Oc1ccc(C(F)(F)F)cc1)c1ccccc1` (centres unmarked) [fluoxetine], for which, in assay [1], the “intestinal peristalsis / intestinal function” value was “cannot improve the intestinal function”. In assay [2], the “depression-like behaviors / antidepressant effect” value was “has an antidepressant effect”.
